≈ marks a conversion by molar mass, not a printed value. Read-outs that look alike come from different tables or passages of the source.
What was measured:
[1] = tested on: human cervical carcinoma cell line KB/HeLa; experiment: XTT proliferation assay, KB/HeLa; assay type: cell-based; conditions: Homo sapiens, read-out: XTT proliferation assay, EC50, KB/Hela
Source text: (§1) The substances according to the invention were investigated for their antiproliferative activity in a proliferation test on established tumor cell lines. The test used determines the cellular dehydrogenase activity and makes possible a determination of the cell vitality and indirectly the cell count. The cell lines used are the human cervical carcinoma cell line KB/HeLa (ATCC CCL17), the ovarian adenocarcinoma cell line SKOV-3 (ATCC HTB77), the human glioblastoma cell line […] (NCI 503138) and the lung carcinoma cell line NCI-H460 (NCI 503473).
(§2) The adherently growing tumor cell lines KB/HeLa, SKOV-3, SF-268 and NCI-H460 were cultured under standard conditions in a fumigation incubator at 37° C., 5% CO2 and 95% atmospheric humidity. On experimental day 1, the cells are detached using trypsin/EDTA and pelleted by centrifugation. Subsequently, the cell pellet is resuspended in the respective culture medium at the corresponding cell count and reacted in a 96-well microtiter plate. The plates are then cultured overnight in the fumigation incubator. The test substances are prepared as 1 mg/ml stock solutions in DMSO and diluted to the appropriate concentrations on experimental day 2 using culture medium. The substances in culture medium are then added to the cells and incubated in the fumigation incubator for 45 h. As a control, cells which are not treated with test substance are used. For the XTT assay, 1 mg/ml of XTT (sodium 3′-[1-(phenylaminocarbonyl)-3,4-tetrazolium]-bis(4-methoxy-6-nitro)benzenesulfonic acid) is dissolved in RPMI-1640 medium without Phenol Red. Additionally, a 0.383 mg/ml PMS (N-methyldibenzopyrazine methylsulfate) solution in phosphate-buffered saline solution (PBS) is prepared. On experimental day 4, 75 μl/well of XTT-PMS mixture is pipetted onto the cell plates which in the meantime have been incubated with the test substances for 45 h. For this, shortly before use, the XTT solution is mixed with the PMS solution in the ratio 50:1 (vol:vol). The cell plates are then incubated in the fumigation incubator for a further 3 h and the optical density (OD490 nm) is determined in a photometer. By means of the OD490 nm determined, the percentage inhibition is calculated relative to the control and plotted semilogarithmically in the form of a concentration-action curve. The EC50 is calculated by means of a regression analysis from the concentration-action curve using the program Graphpad Prism.

[2] = tested on: ovarian adenocarcinoma cell line SKOV-3; experiment: XTT proliferation assay, SKOV-3; assay type: cell-based, human; conditions: Homo sapiens, read-out: XTT proliferation assay, EC50, SKOV3
Source text: as §1, §2

[3] = tested on: human glioblastoma cell line SF-268; experiment: XTT proliferation assay, SF-268; assay type: cell-based; conditions: Homo sapiens, read-out: XTT proliferation assay, EC50, SF-268
Source text: as §1, §2

[4] = tested on: lung carcinoma cell line NCI-H460; experiment: XTT proliferation assay, NCI-H460; assay type: cell-based, human; conditions: Homo sapiens, read-out: XTT proliferation assay, EC50, NCI-H460
Source text: as §1, §2

[5] = tested on: bovine tubulin with 30% associated proteins (MAPs); experiment: Tubulin polymerization assay; assay type: biochemical; conditions: tubulin with 30% MAPs, average of two independent experiments
Procedure: The compounds according to the invention were tested for inhibition of the polymerization of bovine tubulin in an in-vitro test. In this test, tubulin purified by cycles of polymerization and depolymerization is employed, which is polymerized by addition of GTP and warming. In Table 2, the inhibition or EC50 values of the inhibition of polymerization of tubulin with 30% associated proteins (MAPs) are indicated.
The assay is carried out based on the method of Bollag et al. Lyophilized bovine tubulin (cytoskeleton, ML113 tubulin 30% MAPs) is dissolved in a concentration of 2 mg/ml (ML113 in 80 mM PIPES, 0.5 mM EGTA, 2 mM MgCl2, pH 6.9, 1 mM GTP) or 5 mg/ml (TL238 in 80 mM PIPES, 1 mM EGTA, 0.5 mM MgCl2, 20% (v:v) glycerol pH 6.9, 1 mM GTP). The test substances are diluted in 10% DMSO (v:v) and 5 μl of the dilutions are transferred to a 96-well microtiter plate (Nunc, half area plate). After addition of 45 μl of the tubulin solution, the polymerization is determined at 340 nm in a Spectramax 190 microtiter plate reader (Molecular Devices) by means of a kinetics program at 30 sec intervals over a period of 20 min. The resulting area under curve values are used for the calculation of the inhibition with respect to the untreated control. The controls are untreated cells (±induction). Induction was carried out using 3 μM of muristerone A. On day 1, the cells are sown (±muristerone A) and incubated at 37° C. for 24 h. On day 2, the test substance is added (control DMSO) and incubation at 37° C. is continued further 45 h, after which a standard XTT assay is carried out.

physchem = conditions: water, thermodynamic from solid
Procedure: (§3) The saturation solubility in water is determined as described below. For incipient dissolution of the substances and to improve wetting of the samples, at most 1% of DMSO is added. To check the content, an HPLC-UV method was used.

[6] = Saturation solubility in water; conditions: versus comparison substances of WO0208194
Procedure: as §3

[7] = SK-OV-3, SKOV-3 cells, 45 h incubation
[8] = NCI-H460 cells, 45 h incubation

| SMILES | EC50 ([1]; KB/HeLa cells, 45 h incubation) | EC50 [2, 7] | EC50 ([3]; SF-268 cells, 45 h incubation) | EC50 [4, 8] | Inhibition of tubulin polymerization in [% INH at 10 μg/ml] using 30% MAPs [5] | Inhibition of tubulin polymerization using 30% MAPs, EC50 [5] | melting point | solubility (physchem) | Water solubility compared to the comparison substances [6] | EC50 ([1]; HeLa, 45 h) | EC50 ([2]; SK-OV-3, 45 h) | EC50 ([3]; SF-268, 45 h) | EC50 ([4]; NCI-H460, 45 h) |
| --- | --- | --- | --- | --- | --- | --- | --- | --- | --- | --- | --- | --- | --- |
| CC(=O)Oc1cccc(N2CCN(C(=O)c3c4ccccc4nc4ccccc34)CC2)c1 [Compound 3, 3-[4-(Acridin-9-ylcarbonyl)piperazin-1-yl]phenyl acetate] | 0.013 µg/mL | 0.011 µg/mL | 0.018 µg/mL | 0.019 µg/mL | 87 % INH | 1.35 µg/mL | – | – | – | – | – | – | – |
| COC(=O)Oc1cccc(N2CCN(C(=O)c3c4ccccc4nc4ccccc34)CC2)c1 [Compound 5, 3-[4-(Acridin-9-ylcarbonyl)piperazin-1-yl]phenyl methyl carbonate] | 0.017 µg/mL (≈ 0.0385 µM) | 0.015 µg/mL (≈ 0.034 µM) | 0.024 µg/mL (≈ 0.0544 µM) | 0.021 µg/mL (≈ 0.0476 µM) | 94.3 % INH | 1.08 µg/mL | – | – | – | – | – | – | – |
| O=C(OCCCl)Oc1cccc(N2CCN(C(=O)c3c4ccccc4nc4ccccc34)CC2)c1 [Compound 6, 3-[4-(Acridin-9-ylcarbonyl)piperazin-1-yl]phenyl 2-chloroethyl carbonate] | 0.021 µg/mL (≈ 0.0429 µM) | 0.019 µg/mL (≈ 0.0388 µM) | 0.032 µg/mL (≈ 0.0653 µM) | 0.029 µg/mL (≈ 0.0592 µM) | 70 % INH | – | 162 to 163 °C | – | – | – | – | – | – |
| O=C(NCCO)Oc1cccc(N2CCN(C(=O)c3c4ccccc4nc4ccccc34)CC2)c1 [Compound 7, 3-[4-(Acridin-9-ylcarbonyl)piperazin-1-yl]phenyl (2-hydroxyethyl)carbamate] | 0.029 µg/mL (≈ 0.0616 µM) | 0.019 µg/mL (≈ 0.0404 µM) | 0.031 µg/mL (≈ 0.0659 µM) | 0.036 µg/mL (≈ 0.0765 µM) | – | – | – | 108 µg/mL (≈ 230 µM) | greatly improved water solubilities | – | – | – | – |
| CS(=O)(=O)Oc1cccc(N2CCN(C(=O)c3c4ccccc4nc4ccccc34)CC2)c1 [Compound 15, 3-[4-(Acridin-9-ylcarbonyl)piperazin-1-yl]phenyl methanesulfonate] | 0.078 µg/mL | 0.048 µg/mL | 0.069 µg/mL | 0.079 µg/mL | 94.8 % INH | 4.82 µg/mL | – | – | – | – | – | – | – |
| CC1(C)OCC(COC(=O)Oc2cccc(N3CCN(C(=O)c4c5ccccc5nc5ccccc45)CC3)c2)O1 (centres unmarked) [Compound 16, 3-[4-(Acridin-9-ylcarbonyl)piperazin-1-yl]phenyl 2,2-dimethyl-[1,3]-dioxolan-4-ylmethyl carbonate] | 0.033 µg/mL (≈ 0.0609 µM) | 0.026 µg/mL (≈ 0.048 µM) | 0.043 µg/mL (≈ 0.0794 µM) | 0.042 µg/mL (≈ 0.0775 µM) | – | – | 107 to 108 °C | – | – | – | – | – | – |
| O=C(c1c2ccccc2nc2ccccc12)N1CCN(c2cccc(OP(=O)([O-])[O-])c2)CC1.[Na+].[Na+] [Compound 33, Mono-{3-[4-(acridin-9-ylcarbonyl)piperazin-1-yl]phenyl}phosphate disodium salt] | – | – | – | – | – | – | – | 9090 µg/mL | – | 0.013 µg/mL | 0.038 µg/mL | 0.057 µg/mL | 0.067 µg/mL |
| COc1cccc(N2CCN(C(=O)c3c4ccccc4nc4ccc(O)cc34)CC2)c1 [Compound 37, (2-Hydroxyacridin-9-yl)-[4-(3-methoxyphenyl)piperazin-1-yl]methanone] | 0.064 µg/mL (≈ 0.155 µM) | 0.042 µg/mL (≈ 0.102 µM) | 0.076 µg/mL (≈ 0.184 µM) | 0.067 µg/mL (≈ 0.162 µM) | – | 2.06 µg/mL | – | – | – | – | – | – | – |
| O=C(c1c2ccccc2nc2ccc(O)cc12)N1CCN(c2cccc(O)c2)CC1 [Compound 38, (2-Hydroxyacridin-9-yl)-[4-(3-hydroxyphenyl)piperazin-1-yl]methanone] | 0.125 µg/mL (≈ 0.313 µM) | 0.095 µg/mL (≈ 0.238 µM) | 0.137 µg/mL (≈ 0.343 µM) | 0.214 µg/mL (≈ 0.536 µM) | – | 4.57 µg/mL | – | – | – | – | – | – | – |

From patent publication US20050009809A1, “Acridine derivatives and their use as medicaments” (priority 2003, published 2005)
